# Measurements taken from publication PMC2670245 (Bioorganic & medicinal chemistry, 2008).
# pKi: −log10 of the molar value. “Also recorded” adds a separate entry of the source.
# Assays:
# 5-HT3 = details: read-out: Ki 5-HT3; cited from earlier work
# 5-HT4 = details: read-out: Ki 5-HT4; cited from earlier work
# EMT-6 cells = assay: colony formation; type: cell-based, mouse
# MDA-MB435 cells = assay: colony formation; type: cell-based, human
# Panc-02 = details: cited from earlier work
# σ2 receptor = biological target: T1, σ2 receptor (Rattus norvegicus, UniProt Q5U3Y7); assay: σ2 receptor competitive binding with [^3H]RHM-1; details: Ki of σ1/σ2 ratio
# T1 sequence (Q5U3Y7 1-176): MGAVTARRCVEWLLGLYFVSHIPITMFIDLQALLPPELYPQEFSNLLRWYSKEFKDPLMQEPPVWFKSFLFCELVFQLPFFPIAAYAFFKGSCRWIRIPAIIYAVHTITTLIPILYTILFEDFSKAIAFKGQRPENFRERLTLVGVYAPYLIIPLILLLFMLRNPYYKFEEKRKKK
smiles,measurement,setting,value
"COc1ccc(C)cc1NC(=O)OC1CC2CCCC(C1)N2Cc1ccccc1 (centres unmarked) [Compound 6, 9-Benzyl-9-azabicyclo[3.3.1]nonan-3-yl-2-methoxy-5-methylphenylcarbamate]",pKi,5-HT3,< 6.00
same,pKi,5-HT4,< 6.00
"COc1cccc2c1C(=O)c1c(O)c3c(c(O)c1C2=O)C[C@@](O)(C(=O)CO)C[C@@H]3O[C@H]1C[C@H](N)[C@H](O)[C@H](C)O1 [DOX, doxorubicin, reference compound]",tumor cell kill as single agent,"EMT-6 cells; EMT-6, DOX <20 μM, 24 h",no tumor cell kill
same,tumor cell kill as single agent,"MDA-MB435 cells; MDA-MB435, DOX <20 μM, 24 h",no tumor cell kill
"COc1ccc(C)cc1NC(=O)OC1CC2CCCC(C1)N2Cc1ccc(N(C)C)cc1 (centres unmarked) [WC-26, 9-(4-(Dimethylamino)benzyl)-9-azabicyclo[3.3.1]nonan-3-yl-2-methoxy-5-methyl-phenylcarbamate]","clonogenic survival, combination with DOX compared to DOX alone","EMT-6 cells; EMT-6, 2 μM WC-26 16 h, then range of DOX concentrations added for 24 h",large decrease in clonogenic survival
same,cell kill as single agent,"EMT-6 cells; EMT-6, 2 μM WC-26 alone, 40 h",no measureable cell kill; also recorded: no tumor cell kill
same,"clonogenic survival, combination with DOX compared to DOX alone","MDA-MB435 cells; MDA-MB435, 2 μM WC-26 16 h, then range of DOX concentrations added for 24 h",large decrease in clonogenic survival
same,cell kill as single agent,"MDA-MB435 cells; MDA-MB435, 2 μM WC-26 alone, 40 h",no measureable cell kill; also recorded: no tumor cell kill
same,apoptosis in treated tumors,Panc-02; flow cytometry,dose-dependent increases in apoptosis
same,systemic toxicity,Panc-02; treated mice,no evidence of systemic toxicity
"COc1ccc(C)cc1NC(=O)OC1CC2CCCC(C1)N2Cc1ccc(CCF)cc1 (centres unmarked) [WC-59, 9-(4-(2-Fluoroethyl)benzyl)-9-azabicyclo[3.3.1]nonan-3-yl-2-methoxy-5-methyl-phenylcarbamate]",σ1/σ2 (Ki ratio),σ2 receptor,"2,087"
